The CLint scaled is a measure of how fast metabolising enzymes remove a compound, apart from limits set by blood flow. As usually defined, the fraction unbound is the share of the substance not bound to proteins or other matrix.

The test system of data set [1] is Yamato-SS. The data set is described as follows: Synovial sarcoma xenograft model Yamato-SS, tumor volume. To be noted: BALB/c nude mice. The data set is classed as in vivo. As for the experimental part: Yamato-SS cells were maintained in vitro until exponential growth phase and inoculated subcutaneously into BALB/c nude mice at the right flank for tumor development. Treatments of Compound 172 were started at the appropriate tumor volume. Mice were treated with 40 mg/kg PO QD of Compound 172 and tumor volumes (x-axis) were measured twice a week using a caliper. The x-axis is time after start of treatment measured in days and the y-axis is tumor volume measured in mm^3.
Yamato-SS cells were maintained in vitro until exponential growth phase and inoculated subcutaneously into BALB/c nude mice at the right flank. Treatments of Compound 172 were started at the appropriate tumor volume. Mice were randomized into groups and treated with 6, 17, or 50 mg/kg PO QD of Compound 172 and tumor volumes (x-axis) were measured twice a week using a caliper. The x-axis is time after start of treatment measured in days and the y-axis is tumor volume measured in mm^3.
Yamato-SS cells were maintained in vitro until exponential growth phase and inoculated subcutaneously into BALB/c nude mice at the right flank for tumor development. Treatments of Compound 176 were started at the appropriate tumor volume. Mice were treated as indicated with Compound 176 and tumor volumes (x-axis) were measured twice a week using a caliper. The x-axis is time after start of treatment measured in days and the y-axis is tumor volume measured in mm^3.

A short description of data set [2]: Hepatocyte stability, dog. The data set is classed as in vitro ADME. The settings on record: dog hepatocytes; read-out: Hepatocyte stability, Clint scaled ws.
In data set [3] the target is T1, BRD9 (Homo sapiens, UniProt Q9H8M2).
T1 sequence (Q9H8M2 1-597): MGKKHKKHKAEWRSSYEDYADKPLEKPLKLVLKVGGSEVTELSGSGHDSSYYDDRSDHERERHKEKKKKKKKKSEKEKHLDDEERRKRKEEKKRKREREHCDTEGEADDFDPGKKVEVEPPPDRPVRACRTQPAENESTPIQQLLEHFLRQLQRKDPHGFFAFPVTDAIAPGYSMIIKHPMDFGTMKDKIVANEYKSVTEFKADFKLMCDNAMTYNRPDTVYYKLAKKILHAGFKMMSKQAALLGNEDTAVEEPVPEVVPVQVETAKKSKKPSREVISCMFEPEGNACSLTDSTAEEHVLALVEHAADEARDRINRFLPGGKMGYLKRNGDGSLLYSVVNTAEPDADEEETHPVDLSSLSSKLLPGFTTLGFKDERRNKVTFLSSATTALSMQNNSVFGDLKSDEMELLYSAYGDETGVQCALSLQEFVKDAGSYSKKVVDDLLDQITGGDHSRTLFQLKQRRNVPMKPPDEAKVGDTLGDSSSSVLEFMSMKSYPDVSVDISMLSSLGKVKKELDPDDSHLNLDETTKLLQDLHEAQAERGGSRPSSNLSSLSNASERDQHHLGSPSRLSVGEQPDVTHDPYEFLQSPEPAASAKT
The data set is described as follows: HiBiT BRD9 degradation assay in 293T.166 (BRD9-HiBiT) cells. The data set is classed as cell-based. Further details: endogenously expressing BRD9 with HiBiT fusion tag via CRISPR; host or cells: 293T.166 (BRD9-HiBiT), also expressing LgBiT ectopically. An outline of the steps: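 Luminescence from the Nano-Glo HiBiT lytic reagent quantified BRD9 loss after compounds (top 10 μM, half-log, 11 points, duplicates) were incubated 2 h at 37° C. with 10,000 293T.166 BRD9-HiBiT/LgBiT cells per well, with controls lacking compound or lacking reagent.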

A short description of data set [4]: IV PK, rat. Format: in vivo. The settings on record: for IV PK AUC(0-last) / IV PK Cmax: dose-normalised; for clearance / Vd / half-life: in vivo; for clearance: read-out: IV PK CL; for Vd: read-out: IV PK Vdss; for half-life: read-out: IV PK t1/2 (converted).
The nature of data set [5]: PO PK, mouse. Format: in vivo. The settings on record: for PO PK AUC(0-last) / PO PK Cmax: dose-normalised; for bioavailability / half-life: in vivo; for bioavailability: read-out: PO PK F%; for half-life: read-out: PO PK t1/2 (converted).
Data set [6] in a line: Plasma stability, human. Format: in vitro ADME.
A short description of data set [7]: PPB, rat. Format: in vitro ADME. To be noted: plasma.
Data set [8] is described as follows: PPB, mouse. The data set is classed as in vitro ADME. The settings on record: plasma.
Data set [9] addresses T1, BRD9. The data set is described as follows: Western blot, in-vivo BRD9 degradation in ASKA-SS tumors. Also noted: inoculated subcutaneously into BALB/c nude mice at the right flank for tumor development; from tissue; host or cells: Yamato-SS xenograft tumours in BALB/c nude mice; species or system BALB/c nude mice. To be noted: single dose 10 or 75 mg/kg PO, FIG. 13. As for the experimental part:
ASKA-SS cells were maintained in vitro until exponential growth phase and inoculated subcutaneously into BALB/c nude mice at the right flank for tumor development. Mice were treated with single dose of Compound 172 at 10 or 75 mg/kg PO. Tumor were collected at indicated time points and snap frozen until lysis. Tumors were ground and lysed in RIPA Buffer containing 2× protease/phosphatase inhibitor using a freeze grinder at 50 Hz for 5 minutes. Protein concentrations were determined by Pierce™ BCA Protein Assay Kit. Samples were diluted to appropriate concentrations and run in a western blot.
For orientation: A western blot detects proteins with antibodies after separation by electrophoresis.

Setting [10] is: Table 1, 293T.166 cells, 2.0 hours, class symbols, read-out: HiBiT-Degradation 293T.166 BRD9 2.0 hours (DC50).

The structures appear in SMILES notation. Like-named read-outs stand apart in the source and are kept apart here.

Consider `COc1cc(-c2cn(C)c(=O)c(C)c2C)cc(OC)c1CN1CCC(N2CCN(c3ccc(NC4CCC(=O)NC4=O)cc3F)CC2)C(F)(F)C1` (stereo not shown) [Compound 172, 3-[4-[4-[1-[[2,6-dimethoxy-4-(1,4,5-trimethyl-6-oxo-3-pyridyl)phenyl]methyl]-3,3-difluoro-4-piperidyl]piperazin-1-yl]-3-fluoro-anilino]piperidine-2,6-dione], for which the “tumor volume after treatment, Yamato-SS xenograft” value in data set [1] (40 mg/kg PO QD, FIG. 1) is “strong effect”. The “tumor volume after treatment, Yamato-SS xenograft, dose response” value in data set [1] (6, 17, or 50 mg/kg PO QD, FIG. 7) is on record as “dose dependent efficacy”. Further, the CLint scaled in data set [2] is 2 mL/min/kg. Further, the “BRD9 degradation (2 h), Kendo 17 h, percent” value in data set [3] (2 h) is reported as 5%. In data set [3] (2 h, read-out: BRD9 degradation (2 h), Kendo 17 h, concentration), the DC50 worked out at 3.4 nM. The DC50 in data set [3] (setting [10]) is less than 100 nM. In data set [4], the “IV PK AUC(0-last)” value is reported as 1230 (h*ng/mL)/(mg/kg), the “IV PK Cmax” value is 517 [ng/mL]/(mg/kg), the clearance was found to be 16 mL/min/kg and the Vd amounted to 7.9 L/kg. Further, in [4], the half-life is 9.5 h. Further, in [5], the “PO PK AUC(0-last)” value is given as 5947 (h*ng/mL)/(mg/kg), the “PO PK Cmax” value is on record as 844 (ng/mL)/(mg/kg), the bioavailability stood at 122% and the half-life is 3.3 h. In [6], the “Stability (plasma) % remaining @3 hrs” value worked out at 83.4%. The fraction unbound in data set [7] was 0.083. Moreover, the fraction unbound in [8] was 0.018. Further, in data set [9], the “in-vivo BRD9 degradation, western blot” value is “dose dependent in-vivo BRD9 degradation”.
In the case of `COc1cc(-c2cn(C)c(=O)c(C)c2C)cc(OC)c1CN1CCC(N2CCN(c3ccc(NC4CCC(=O)NC4=O)cc3F)CC2)C(F)(F)C1` (single isomer, unassigned) [Compound 176, 3-[4-[4-[1-[[2,6-dimethoxy-4-(1,4,5-trimethyl-6-oxo-3-pyridyl)phenyl]methyl]-3,3-difluoro-4-piperidyl]piperazin-1-yl]-3-fluoro-anilino]piperidine-2,6-dione], the “tumor volume after treatment, Yamato-SS xenograft” value in data set [1] (treated as indicated, FIG. 21) is “strong effect”. In addition, the CLint scaled in [2] stood at 8.6 mL/min/kg. In addition, in [3] (setting [10]), the DC50 is less than 100 nM. Besides, in data set [4], the “IV PK AUC(0-last)” value is 771 (h*ng/mL)/(mg/kg), the “IV PK Cmax” value is 439 [ng/mL]/(mg/kg), the clearance came to 21.6 mL/min/kg and the Vd amounted to 6.7 L/kg. Further, the half-life in data set [4] was 4 h. For the same compound, in [5], the “PO PK AUC(0-last)” value is 1999 (h*ng/mL)/(mg/kg), the “PO PK Cmax” value was 346 (ng/mL)/(mg/kg), the bioavailability was determined as 74% and the half-life is 3.5 h. In data set [6], the “Stability (plasma) % remaining @3 hrs” value came to 67%. Also, the fraction unbound in data set [7] is 0.098. Besides, the fraction unbound in data set [8] was 0.034.

The values above are taken from US11691972B2, “Compounds for targeted degradation of BRD9” (C4 Therapeutics, Inc., priority 2020, dated 2023).
